US8765961B2, “Near infrared fluorescent imaging agent” (FUJIFILM Corporation, priority 2009, dated 2014)

Target: T1, albumin (Bos taurus, UniProt P02769)
T1 construct: The test substance was dissolved to 5 μg/mL in calf serum; from tissue; host or cells: calf serum
Assay: Serum protein binding rate test by ultracentrifugation, albumin fraction
Format: in vitro ADME
Conditions: 5 μg/mL in calf serum, 37° C., density gradient centrifugation, HPLC
Method: The test substance was dissolved to 5 μg/mL in calf serum, vibrated for 20 minutes at 37° C., and subjected to density gradient centrifugation (1,000,000×g, 24 h) using NaBr. Following the centrifugation, the dye concentrations in the albumin fraction, lipoprotein fraction, and the remaining fractions were quantified by HPLC.

T1 sequence (P02769 25-607): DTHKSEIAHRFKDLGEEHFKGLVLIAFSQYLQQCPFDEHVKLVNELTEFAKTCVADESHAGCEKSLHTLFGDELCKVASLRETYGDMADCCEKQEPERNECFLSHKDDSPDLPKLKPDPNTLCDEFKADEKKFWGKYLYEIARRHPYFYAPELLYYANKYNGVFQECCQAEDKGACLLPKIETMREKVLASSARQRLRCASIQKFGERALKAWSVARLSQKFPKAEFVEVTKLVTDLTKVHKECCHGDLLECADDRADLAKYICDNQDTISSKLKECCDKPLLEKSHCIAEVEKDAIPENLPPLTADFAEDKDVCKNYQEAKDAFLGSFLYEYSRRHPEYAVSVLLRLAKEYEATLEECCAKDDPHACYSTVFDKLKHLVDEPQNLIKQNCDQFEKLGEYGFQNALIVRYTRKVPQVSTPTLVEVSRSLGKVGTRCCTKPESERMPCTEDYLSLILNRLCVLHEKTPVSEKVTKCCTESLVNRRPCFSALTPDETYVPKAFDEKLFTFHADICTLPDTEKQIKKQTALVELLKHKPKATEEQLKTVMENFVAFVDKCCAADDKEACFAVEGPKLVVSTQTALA

Protein binding rate (%) Albumin: 18%
Structure (SMILES): CC1(C)C(/C=C/C=C/C=C/C=C2\N(CCCCS(=O)(=O)O)c3ccc4ccccc4c3C2(C)C)=[N+](CCCCS(=O)(=O)[O-])c2ccc3ccccc3c21 [ICG, indocyanine green]
